Results reported in PMC11237774, “On-target, dual aminopeptidase inhibition provides cross-species antimalarial activity” (mBio, 2024).
In brackets after ≈: the same amount, converted by molar mass.

Assays:
[1] = system: human M1 aminopeptidase insulin-regulated aminopeptidase (IRAP); parameters: method as in PMID 30537832; conditions: tested up to 200 µM; cited from earlier work
MMP-8 = target: T1, MMP-8 (Homo sapiens, UniProt P22894); assay: Eurofins Cerep safety pharmacology screening; type: biochemical; conditions: read-out: Mean % inhibition (n=2), MMP-8, 10 µM
T1 construct: Eurofins Cerep (contract screen)
From the text: (§1) Results showing any inhibition or stimulation higher than 50% are considered to represent significant effects of the test compounds.

MMP-2 = target: T2, MMP-2 (Homo sapiens, UniProt P08253); assay: Eurofins Cerep safety pharmacology screening; type: biochemical; conditions: read-out: Mean % inhibition (n=2); MMP-2, 10 µM
T2 construct: Eurofins Cerep (contract screen)
From the text: as §1

HDAC9 = target: T3, HDAC9 (Homo sapiens, UniProt Q9UKV0); assay: Eurofins Cerep safety pharmacology screening; type: biochemical; conditions: read-out: Mean % inhibition (n=2); HDAC9, 10 µM
T3 construct: Eurofins Cerep (contract screen)
From the text: as §1

MMP-3 = target: T4, MMP-3 (Homo sapiens, UniProt P08254); assay: Eurofins Cerep safety pharmacology screening; type: biochemical; conditions: read-out: Mean % inhibition (n=2); MMP-3, 10 µM
T4 construct: Eurofins Cerep (contract screen)
From the text: as §1

MMP-9 = target: T5, MMP-9 (Homo sapiens, UniProt P14780); assay: Eurofins Cerep safety pharmacology screening; type: biochemical; conditions: read-out: Mean % inhibition (n=2); MMP-9, 10 µM
T5 construct: Eurofins Cerep (contract screen)
From the text: as §1

HDAC1 = target: T6, HDAC1 (Homo sapiens, UniProt Q13547); assay: Eurofins Cerep safety pharmacology screening; type: biochemical; conditions: read-out: Mean % inhibition (n=2); HDAC1, 10 µM
T6 construct: Eurofins Cerep (contract screen)
From the text: as §1

MMP-14 = target: T7, MMP-14 (Homo sapiens, UniProt P50281); assay: Eurofins Cerep safety pharmacology screening; type: biochemical; conditions: read-out: Mean % inhibition (n=2); MMP-14, 10 µM
T7 construct: Eurofins Cerep (contract screen)
From the text: as §1

HDAC2 = target: T8, HDAC2 (Homo sapiens, UniProt Q92769); assay: Eurofins Cerep safety pharmacology screening; type: biochemical; conditions: read-out: Mean % inhibition (n=2); HDAC2, 10 µM
T8 construct: Eurofins Cerep (contract screen)
From the text: as §1

HDAC5 = target: T9, HDAC5 (Homo sapiens, UniProt Q9UQL6); assay: Eurofins Cerep safety pharmacology screening; type: biochemical; conditions: read-out: Mean % inhibition (n=2); HDAC5, 10 µM
T9 construct: Eurofins Cerep (contract screen)
From the text: as §1

HDAC8 = target: T10, HDAC8 (Homo sapiens, UniProt Q9BY41); assay: Eurofins Cerep safety pharmacology screening; type: biochemical; conditions: read-out: Mean % inhibition (n=2); HDAC8, 10 µM
T10 construct: Eurofins Cerep (contract screen)
From the text: as §1

HDAC7 = target: T11, HDAC7 (Homo sapiens, UniProt Q8WUI4); assay: Eurofins Cerep safety pharmacology screening; type: biochemical; conditions: read-out: Mean % inhibition (n=2); HDAC7, 10 µM
T11 construct: Eurofins Cerep (contract screen)
From the text: as §1

MMP-7 = target: T12, MMP-7 (Homo sapiens, UniProt P09237); assay: Eurofins Cerep safety pharmacology screening; type: biochemical; conditions: read-out: Mean % inhibition (n=2); MMP-7, 10 µM
T12 construct: Eurofins Cerep (contract screen)
From the text: as §1

HDAC10 = target: T13, HDAC10 (Homo sapiens, UniProt Q969S8); assay: Eurofins Cerep safety pharmacology screening; type: biochemical; conditions: read-out: Mean % inhibition (n=2); HDAC10, 10 µM
T13 construct: Eurofins Cerep (contract screen)
From the text: as §1

[2] = target: human aminopeptidase N (APN or CD13); parameters: method as in PMID 30537832; conditions: cited from earlier work
Pv-M17 = target: T14, Pv-M17 (Plasmodium vivax, UniProt A5K3U9); assay: Recombinant aminopeptidase fluorescence assay (H-Leu-NHMec); type: biochemical, P. vivax; conditions: Pv M17, Morrison equation; read-out: Ki^(app) ± SEM
T14 construct: made in house
Experimental: (§2) Inhibition of aminopeptidase activity assays were performed against nine aminopeptidases: the M1 alanyl and M17 leucyl aminopeptidases from P. falciparum (PfA-M1; PfA-M17), P. vivax (Pv-M1; Pv-M17), and P. berghei (Pb-M1; Pb-M17), and three human M1 homologs: LTA4H (OriGene TP307617), ERAP1 (OriGene TP314469), and ERAP2 (Creative BioMart ERAP2-304H). The Plasmodium enzymes were produced recombinantly as described previously ([16], [17]), and the human recombinant enzymes were purchased from commercial suppliers as indicated.
(§3) The concentration of H-Leu-NHMec in the assay was held constant for each enzyme and ranged from 10 to 100 µM, depending on the enzyme. Reactions were measured at 37°C in white 384-well plates in a total volume of 25 or 50 µL using a spectrofluorimeter (BMG FLUOstar) with excitation at 355 nm and emission at 460 nm. The fluorescence signal was continuously monitored until a final steady-state velocity, v, was obtained. Inhibition constants were calculated from biological triplicates made from three different protein preparations.
(§4) Substrate concentrations were selected to allow sensitive detection of enzyme activity while not exceeding the Km for each enzyme. A compound concentration range was selected to obtain a complete inhibition curve (0%–100 %) in biological triplicate. Where possible, the Ki values were calculated by plotting the initial rates versus inhibitor concentration and fitting to the Morrison equation for tight-binding inhibitors in GraphPad Prism (V.8.4.1; non-linear regression method).

Pf3D7 = assay: Parasite reduction ratio assay; type: cell-based, P. falciparum
Experimental: Assays were performed as described previously with some alterations ([37]). […] Specifically, media containing compound was placed in wells every 24 h for up 120 h. […] Parasite growth was measured at day 21 using SYBR green I as described above. Fluorescence was used to determine at what treatment day wells became positive for growth when compared with the well before it; greater than double the fluorescence was determined to be a positive well. […] Experiments were performed in two or three biological replicates in quadruplicate.

[3] = Kinetic solubility by nephelometry; type: physicochemical
Experimental: Preliminary studies were conducted to assess the in vitro absorption, distribution, metabolism, and excretion (ADME) properties and in vivo mouse exposure of MMV1557817 following single oral dosing. Kinetic solubility was conducted using nephelometry based on a modification of a previously published method ([45]). Briefly, compound was dissolved in DMSO and spiked into either pH 6.5 phosphate buffer (to reflect the pH of the fasted state upper small intestine) or 0.01 M HCl (to reflect gastric pH 1.5–2) with a final DMSO concentration of 1% (vol/vol) and final concentrations ranging from 1 to 100 µg/mL. Samples were analyzed by nephelometry to determine the concentration above which precipitation occurred.

PfA-M17 = target: T15, PfA-M17 (Plasmodium falciparum, UniProt Q8IL11); assay: Recombinant aminopeptidase fluorescence assay (H-Leu-NHMec); type: biochemical, P. falciparum; conditions: Pf M17, Morrison equation; read-out: Ki^(app) ± SEM
T15 construct: made in house
Experimental: as §2, §3, §4

T12 sequence (P09237 95-267): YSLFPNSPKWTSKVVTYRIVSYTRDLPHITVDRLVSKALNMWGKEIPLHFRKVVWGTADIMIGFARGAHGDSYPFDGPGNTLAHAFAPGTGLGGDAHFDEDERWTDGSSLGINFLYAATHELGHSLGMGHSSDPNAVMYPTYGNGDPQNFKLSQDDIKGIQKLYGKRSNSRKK
T6 sequence (Q13547 whole entry): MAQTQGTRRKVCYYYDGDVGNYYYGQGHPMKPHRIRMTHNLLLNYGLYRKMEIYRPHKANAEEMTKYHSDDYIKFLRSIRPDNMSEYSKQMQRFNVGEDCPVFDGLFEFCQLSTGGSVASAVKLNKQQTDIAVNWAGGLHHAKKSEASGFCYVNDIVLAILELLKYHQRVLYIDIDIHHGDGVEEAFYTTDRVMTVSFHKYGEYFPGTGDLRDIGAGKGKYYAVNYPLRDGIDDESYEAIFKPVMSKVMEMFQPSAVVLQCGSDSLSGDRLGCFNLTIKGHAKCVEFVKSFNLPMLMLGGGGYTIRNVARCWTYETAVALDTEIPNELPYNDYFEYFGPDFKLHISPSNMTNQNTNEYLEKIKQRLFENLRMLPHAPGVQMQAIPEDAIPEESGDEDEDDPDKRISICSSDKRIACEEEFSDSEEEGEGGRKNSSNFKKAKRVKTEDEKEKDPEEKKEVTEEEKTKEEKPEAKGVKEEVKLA
T9 sequence (Q9UQL6 whole entry): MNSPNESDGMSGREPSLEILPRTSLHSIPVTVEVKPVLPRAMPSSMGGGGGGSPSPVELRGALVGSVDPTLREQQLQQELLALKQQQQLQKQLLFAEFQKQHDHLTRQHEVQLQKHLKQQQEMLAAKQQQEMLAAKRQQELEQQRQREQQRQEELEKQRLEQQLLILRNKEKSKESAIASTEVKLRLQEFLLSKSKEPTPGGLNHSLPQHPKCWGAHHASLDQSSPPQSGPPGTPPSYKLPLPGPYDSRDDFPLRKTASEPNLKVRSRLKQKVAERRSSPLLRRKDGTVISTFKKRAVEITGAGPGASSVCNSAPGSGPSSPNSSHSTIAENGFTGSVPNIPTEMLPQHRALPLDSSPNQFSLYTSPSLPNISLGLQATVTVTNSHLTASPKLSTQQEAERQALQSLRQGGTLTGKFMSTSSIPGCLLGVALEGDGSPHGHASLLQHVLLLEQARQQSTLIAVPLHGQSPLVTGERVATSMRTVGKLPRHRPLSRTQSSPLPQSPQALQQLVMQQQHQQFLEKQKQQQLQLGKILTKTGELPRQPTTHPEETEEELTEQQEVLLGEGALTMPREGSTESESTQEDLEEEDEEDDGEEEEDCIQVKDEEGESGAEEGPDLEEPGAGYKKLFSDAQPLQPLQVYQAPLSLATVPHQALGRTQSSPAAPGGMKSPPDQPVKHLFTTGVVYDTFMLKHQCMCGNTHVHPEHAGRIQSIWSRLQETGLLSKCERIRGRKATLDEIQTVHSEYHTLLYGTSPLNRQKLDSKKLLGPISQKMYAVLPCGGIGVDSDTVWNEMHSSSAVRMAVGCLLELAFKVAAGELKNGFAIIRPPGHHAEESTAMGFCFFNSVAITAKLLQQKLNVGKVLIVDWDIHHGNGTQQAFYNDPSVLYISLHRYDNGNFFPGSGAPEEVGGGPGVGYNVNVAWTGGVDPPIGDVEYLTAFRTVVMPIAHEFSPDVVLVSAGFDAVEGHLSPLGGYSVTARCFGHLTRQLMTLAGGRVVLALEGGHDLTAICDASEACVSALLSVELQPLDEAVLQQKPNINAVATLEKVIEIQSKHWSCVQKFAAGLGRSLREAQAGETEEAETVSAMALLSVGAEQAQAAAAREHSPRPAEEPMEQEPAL
T2 sequence (P08253 110-660): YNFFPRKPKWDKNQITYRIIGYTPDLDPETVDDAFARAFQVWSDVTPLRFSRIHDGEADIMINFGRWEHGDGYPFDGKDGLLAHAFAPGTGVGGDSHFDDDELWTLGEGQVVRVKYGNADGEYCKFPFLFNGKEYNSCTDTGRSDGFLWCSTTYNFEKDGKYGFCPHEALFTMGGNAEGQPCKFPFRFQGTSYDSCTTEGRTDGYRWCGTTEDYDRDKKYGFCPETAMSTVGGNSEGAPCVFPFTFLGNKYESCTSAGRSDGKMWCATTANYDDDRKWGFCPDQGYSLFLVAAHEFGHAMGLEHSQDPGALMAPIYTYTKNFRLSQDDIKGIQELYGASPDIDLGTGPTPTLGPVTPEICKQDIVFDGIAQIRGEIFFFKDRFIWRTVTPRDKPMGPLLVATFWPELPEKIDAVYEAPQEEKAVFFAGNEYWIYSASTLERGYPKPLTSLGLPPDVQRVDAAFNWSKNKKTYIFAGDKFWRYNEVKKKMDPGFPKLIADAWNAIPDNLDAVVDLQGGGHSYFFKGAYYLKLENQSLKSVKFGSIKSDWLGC
T10 sequence (Q9BY41 whole entry): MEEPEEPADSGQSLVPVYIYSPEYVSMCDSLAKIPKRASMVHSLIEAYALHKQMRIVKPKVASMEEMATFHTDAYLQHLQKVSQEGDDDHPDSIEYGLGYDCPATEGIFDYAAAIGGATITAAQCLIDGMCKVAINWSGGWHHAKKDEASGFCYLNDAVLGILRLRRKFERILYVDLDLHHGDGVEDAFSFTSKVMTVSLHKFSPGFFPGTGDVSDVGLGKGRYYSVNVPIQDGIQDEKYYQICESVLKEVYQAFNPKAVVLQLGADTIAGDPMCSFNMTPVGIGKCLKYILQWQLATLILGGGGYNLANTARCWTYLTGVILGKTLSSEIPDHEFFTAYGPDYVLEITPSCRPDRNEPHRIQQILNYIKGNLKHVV
T1 sequence (P22894 101-467): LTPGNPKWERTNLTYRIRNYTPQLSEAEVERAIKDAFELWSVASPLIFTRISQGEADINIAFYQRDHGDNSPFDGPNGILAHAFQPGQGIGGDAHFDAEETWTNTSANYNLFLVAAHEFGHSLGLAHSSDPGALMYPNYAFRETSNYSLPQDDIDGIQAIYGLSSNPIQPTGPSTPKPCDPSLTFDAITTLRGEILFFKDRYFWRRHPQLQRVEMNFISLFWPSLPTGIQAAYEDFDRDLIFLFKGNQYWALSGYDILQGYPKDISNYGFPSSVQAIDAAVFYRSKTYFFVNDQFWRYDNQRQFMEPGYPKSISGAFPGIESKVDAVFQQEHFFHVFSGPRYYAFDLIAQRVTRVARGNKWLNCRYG
T13 sequence (Q969S8 whole entry): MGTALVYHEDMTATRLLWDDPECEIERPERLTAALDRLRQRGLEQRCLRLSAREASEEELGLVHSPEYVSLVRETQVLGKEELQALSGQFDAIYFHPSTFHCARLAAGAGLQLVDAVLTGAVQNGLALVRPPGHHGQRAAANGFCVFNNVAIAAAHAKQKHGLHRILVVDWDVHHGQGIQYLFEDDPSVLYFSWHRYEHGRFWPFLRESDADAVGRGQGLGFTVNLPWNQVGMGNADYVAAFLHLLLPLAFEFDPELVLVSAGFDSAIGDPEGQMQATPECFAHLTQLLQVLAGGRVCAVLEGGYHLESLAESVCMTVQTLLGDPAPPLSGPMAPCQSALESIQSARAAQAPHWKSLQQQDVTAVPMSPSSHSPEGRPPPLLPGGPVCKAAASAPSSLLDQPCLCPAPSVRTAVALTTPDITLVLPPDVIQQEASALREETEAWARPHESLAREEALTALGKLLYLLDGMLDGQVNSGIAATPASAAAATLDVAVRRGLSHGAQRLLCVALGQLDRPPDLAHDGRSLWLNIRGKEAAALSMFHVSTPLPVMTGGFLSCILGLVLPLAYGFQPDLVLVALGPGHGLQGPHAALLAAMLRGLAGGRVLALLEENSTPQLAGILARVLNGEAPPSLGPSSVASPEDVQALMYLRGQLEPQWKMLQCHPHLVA
T14 sequence (A5K3U9 74-621): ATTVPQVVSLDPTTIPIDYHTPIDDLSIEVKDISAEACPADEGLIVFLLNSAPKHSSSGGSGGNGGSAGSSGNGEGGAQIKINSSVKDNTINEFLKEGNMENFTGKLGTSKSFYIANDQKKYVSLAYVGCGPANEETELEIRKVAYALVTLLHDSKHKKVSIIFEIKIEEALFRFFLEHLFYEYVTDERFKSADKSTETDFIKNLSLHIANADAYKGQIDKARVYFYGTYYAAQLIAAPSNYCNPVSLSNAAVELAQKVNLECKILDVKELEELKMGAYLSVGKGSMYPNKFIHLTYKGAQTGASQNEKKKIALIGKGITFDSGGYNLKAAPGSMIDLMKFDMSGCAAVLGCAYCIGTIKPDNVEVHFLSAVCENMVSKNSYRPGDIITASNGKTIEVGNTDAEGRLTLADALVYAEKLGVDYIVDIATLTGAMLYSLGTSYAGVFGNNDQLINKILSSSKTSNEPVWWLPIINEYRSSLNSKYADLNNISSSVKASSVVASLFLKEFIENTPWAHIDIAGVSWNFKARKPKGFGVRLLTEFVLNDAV
T15 sequence (Q8IL11 84-605): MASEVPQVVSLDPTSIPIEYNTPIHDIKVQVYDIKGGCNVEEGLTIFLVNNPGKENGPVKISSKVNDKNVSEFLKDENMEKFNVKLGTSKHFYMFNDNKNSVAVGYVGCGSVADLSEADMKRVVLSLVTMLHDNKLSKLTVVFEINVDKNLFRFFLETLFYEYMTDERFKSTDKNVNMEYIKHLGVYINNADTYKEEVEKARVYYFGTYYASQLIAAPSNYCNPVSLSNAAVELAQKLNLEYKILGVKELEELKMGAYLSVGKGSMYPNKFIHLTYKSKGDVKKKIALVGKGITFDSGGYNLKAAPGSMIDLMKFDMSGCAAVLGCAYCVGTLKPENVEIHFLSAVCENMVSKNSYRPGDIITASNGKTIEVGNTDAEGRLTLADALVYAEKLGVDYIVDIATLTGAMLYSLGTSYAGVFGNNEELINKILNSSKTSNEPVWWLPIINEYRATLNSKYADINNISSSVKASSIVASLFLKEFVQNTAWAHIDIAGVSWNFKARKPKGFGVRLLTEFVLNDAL

For CC(C)(C)CC(=O)NC(C(=O)NO)c1ccc(-c2cc(F)c(F)c(F)c2)cc1 (stereo not shown) [MMV1557817, N-(2-(hydroxyamino)−2-oxo-1-(3′,4′,5′-trifluoro-[1,1′-biphenyl]-4-yl)ethyl)-3,3-dimethylbutanamide], the off-target inhibition [1] is listed as “limited off-target inhibitory affects”, the inhibition at 10 µM (MMP-8) is listed as 52.6% and the inhibition at 10 µM (MMP-2) is listed as 39.8%. For the same molecule, the inhibition at 10 µM (HDAC9) was -3.6%, the inhibition at 10 µM (MMP-3) was -0.8% and the inhibition at 10 µM (MMP-9) was 46.3%. The inhibition at 10 µM (HDAC1) was 2.8%, the inhibition at 10 µM (MMP-14) was 24.1% and the inhibition at 10 µM (HDAC2) was 3%. For the same molecule, the inhibition at 10 µM (HDAC5) was -2.8%, the inhibition at 10 µM (HDAC8) was 6.3% and the inhibition at 10 µM (HDAC7) was 7.7%. For the same molecule, the inhibition at 10 µM (MMP-7) was -6.7%, the inhibition at 10 µM (HDAC10) was 5.3% and the Ki [2] was 300 nM. For the same molecule, the Ki (Pv-M17) was 208 ± 20 nM, the “99.9% PCT” value (Pf3D7; Pf3D7, 10× EC50) was 86 h and the Lag phase (Pf3D7; Pf3D7, 10× EC50) was 72 h. The “Log (PRR)” value (Pf3D7; Pf3D7, 10× EC50, over one cycle) was 2.2 ± 0.2, the solubility kinetic ([3]; pH 2.0 (0.01 M HCl)) was 12.5 to 25 µg/mL (≈ 31.7 to 63.4 µM) and the solubility kinetic ([3]; pH 6.5 phosphate buffer) was 12.5 to 25 µg/mL (≈ 31.7 to 63.4 µM). The Ki (PfA-M17) was 112 nM.
